Reference: patent US20260109732A1, “LIPID AMINES” (ModernaTX, Inc., priority 2021, published 2026)
Where a name gives a salt, the structure may show the parent alone.

Assays:
HeLa cells [1] = test: CFTR Protein Expression Assay in HeLa Cells; type: cell-based, Human; settings: LNPs encapsulating CFTR mRNA, N=4 wells; 5 h serum-free then 24 h; immunofluorescence vs PBS control
Procedure: (§1) For HeLa studies evaluating CFTR protein expression, the intermediate nanoparticle formulation (1 mL, 0.415 mg mRNA) is mixed with a buffer containing 20 mM TRIS (pH 7.5), 0.9 mg/mL PEG-DMG-2K and lipid amine SA50 (647.1 nmol) at a volumetric ratio of 6:1 of nanoparticle:buffer. The resulting nanoparticle suspension undergoes concentration using a centrifugal filtration device (100 kDa molecular weight cut-off) and is diluted in running buffer (20 mM TRIS, 14.3 mM sodium acetate, and 32 g/L sucrose, pH 7.5) with a 300 mM NaCl solution to a final buffer matrix containing 70 mM NaCl.
(§2) Lipid nanoparticle compositions were prepared in a manner analogous to that in example 2. To evaluate LNP cellular uptake and protein expression In Vitro, HeLa cells from ATCC.org (ATCC CCL-2) are used. The cells are cultured in complete Minimum Essential Medium (MVEM) and are plated in 96 well Cell Carrier Ultra plate with PDL coated surface (PerkinElmer) prior to running an experiment.
Buffer control (PBS) and LNPs encapsulating cystic fibrosis transmembrane conductance regulator (CFTR) mRNA were dosed with MEM media in the absence of serum (N=4 replicate wells). LNP transfected cells were incubated for 5 h, followed by media removal and supplementation with complete MEM media. Cells were further incubated in complete MEM media overnight (24 h).
Following 24 hr incubation, the cells were fixed with PFA and processed for immunofluorescence (IF) using an anti-CFTR rabbit monoclonal antibody. Briefly, the cells were permeabilized with 0.5% TX-100 for 10 min, blocked with 3% bovine serum albumin (BSA)+PBST for 1 hr at room temperature, and incubated with primary anti-CFTR monoclonal antibody overnight at 4° C. Following primary antibody incubation, the cells were incubated with Alexa 488 conjugated secondary antibody for 30 mi and stained with DAPI and HCS CellMask Blue stain. Between different incubation steps the cells were either washed with PBS or PBST. Cells were imaged using Opera Phoenix spinning disk confocal microscope (PerkinElmer), and CFTR protein expression was detected using the 488 nm channel. The image analysis was performed in Harmony 4.9, with main analysis output being CFTR intensity per cell. The results shown in Table 3b show fold-change in CFTR signal intensity per cell compared to buffer (PBS) control (NA=not available).

[2] = Diameter and PDI from DLS measurements of mRNA nanoparticles with lipid amines; type: physicochemical
Procedure: (§3) Lipids are dissolved in ethanol at a concentration of 24 mg/mL and molar ratios of 49.0:11.2:39.3:0.5 (IL1:DSPC:cholesterol:PEG-DMG-2K) and mixed with the acidification buffer (45 mM acetate buffer at pH 4). The lipid solution and acidification buffer are mixed using a multi-inlet vortex mixer at a 3:7 volumetric ratio of lipid:buffer for mixer 1 and mixer 2 and a 1:3 volumetric ratio of lipid:buffer (25% ethanol) for mixer 3. After a 5 second residence time, the resulting nanoparticles are mixed with 55 mM sodium acetate at pH 5.6 at a volumetric ratio of 5:7 of nanoparticle:buffer. See Table 2a for mixing parameters. The resulting dilute nanoparticles are then buffer exchanged and concentrated using tangential flow filtration (TFF) into a final buffer containing 5 mM sodium acetate pH 5.0. Then a 70% sucrose solution in 5 mM acetate buffer at pH 5 is subsequently added.
(§4) The resulting nanoparticles at a lipid concentration of 7.33 mg/mL in 5 mM acetate (pH 5) and 75 g/L sucrose are mixed with mRNA (luciferease or CFTR) at a concentration of 0.625 mg/mL in 42.5 mM sodium acetate pH 5.0, with N:P of 4.93. The nanoparticle solution and nanoparticles are mixed using a multi-inlet vortex mixer at a 3:2 volumetric ratio of nanoparticle:mRNA. Once loaded with mRNA, these intermediate nanoparticles undergo a 300 second residence time prior addition of neutralization buffer containing 120 mM TRIS pH 8.12 at a volumetric ratio of 5:1 of nanoparticle:buffer.
(§5) For HeLa studies evaluating luciferase protein expression, PEG-DMG-2K dissolved in a 20 mM TRIS buffer (pH 7.5) is added to the neutralized intermediate nanoparticle solution at a ratio of 1:6, bringing the solution to the final molar ratios of IL1:DSPC:cholesterol:PEG-DMG-2K of 48.5:11.1:38.9:1.5%. This nanoparticle formulation is then modified with lipid amines. In a typical example, nanoparticle formulation at a concentration of 0.18 mg/mL mRNA and a 0.56 mL volume is modified with lipid amine SA50 (467.2 nmol) prepared in buffer containing 20 mM TRIS, 14.3 mM sodium acetate, 32 g/L sucrose and 140 mM NaCl-pH 7.5 at a volumetric ratio of 1:1 of nanoparticle:buffer.
as §1
(§6) Both resulting nanoparticle suspensions are filtered through a 0.8/0.2 μm capsule filter and filled into glass vials at an mRNA strength of about 0.1-1 mg/mLBliophysical data (Diameter and PDI from DLS measurements and Encapsualtion using Ribogreen assay) for both luciferase and CFTR mRNA nanoparticles with lipid amines is shown in Tables 2c and d, respectively.

[3] = Encapsulation of mRNA nanoparticles with lipid amines using Ribogreen assay; type: physicochemical
Procedure: as §3, §4, §5, §1, §6

HeLa cells [4] = test: Luciferase Protein Expression Assay in HeLa Cells; type: cell-based, Human; settings: LNPs encapsulating Luciferase mRNA, 25 ng per well, N=4 wells; 5 h serum-free then 24 h; ONE-Glo
Procedure: as §5, §2
Cells were transfected with buffer control (PBS) or LNPs encapsulating Luciferase mRNA (25 ng per well; N=4 replicate wells) in serum-free MEM media. LNP transfected cells were incubated for 5 h, followed by media removal and supplementation with complete MEM media. Cells were further incubated in complete MEM media overnight (24 h). Following the 24 hr incubation, luciferase protein expression was measured using the ONE-Glo™ Luciferase Assay (Promega). Cells were lysed using 1× Passive Lysis Buffer (Cat. #E194A) for 10 min in a microplate mixer at room temperature. Luciferase in the supernatant was measured by adding Luciferase Assay Reagent (Cat. #E151A) containing luciferin. Bioluminescence was then immediately measured on a Synergy H1 plate reader (BioTek). The results shown in Table 3a show the Average Relative Light Units (RLU) of each sample tested.

[5] = CFTR mRNA nanoparticle with lipid amine
[6] = Luciferase mRNA nanoparticle modified with lipid amine

| Compound | Average fold-change in CFTR signal intensity per cell compared to buffer control ± standard deviation (HeLa cells [1]) | Diameter (nm) [2, 5] | PDI [2, 5] | Diameter (nm) [2, 6] | PDI [2, 6] | % Encapsulation (Ribogreen) [3, 5] | % Encapsulation (Ribogreen) [3, 6] | Average Relative Light Units ± Standard Deviation (HeLa cells [4]) |
| --- | --- | --- | --- | --- | --- | --- | --- | --- |
| CC(C)CCC[C@@H](C)[C@H]1CC[C@H]2[C@@H]3CC=C4C[C@@H](OC(=O)CC(=O)N(CCCN)CCCCNCCCN)CC[C@]4(C)[C@H]3CC[C@]12C.Cl.Cl.Cl [SA59, (3S,8S,9S,10R,13R,14S,17R)-10,13-Dimethyl-17-((R)-6-methylheptan-2-yl)-2,3,4,7,8,9,10,11,12,13,14,15,16,17-tetradecahydro-1H-cyclopenta[a]phenanthren-3-yl 3-((3-aminopropyl)(4-((3-aminopropyl)amino)butyl)amino)-3-oxopropanoate trihydrochloride] | 5.6 ± 0.5 fold-change | 76.9 nm | 0.15 | 74 nm | 0.15 | 99.6% | 99.7% | 17590.1 ± 6267.4 Relative Light Units |
| CC(C)CCC[C@@H](C)[C@H]1CC[C@H]2[C@@H]3CC=C4C[C@@H](OC(=O)N(CCCN)CCCCCCCCN)CC[C@]4(C)[C@H]3CC[C@]12C [SA60, (3S,8S,9S,10R,13R,14S,17R)-10,13-Dimethyl-17-((R)-6-methylheptan-2-yl)-2,3,4,7,8,9,10,11,12,13,14,15,16,17-tetradecahydro-1H-cyclopenta[a]phenanthren-3-yl (8-aminooctyl)(3-aminopropyl)carbamate dihydrochloride] | 10.7 ± 0.1 fold-change | 70.9 nm | 0.08 | 74 nm | 0.13 | 99.5% | 98.8% | 30508.5 ± 6869.7 Relative Light Units |
| CC(C)CCC[C@@H](C)[C@H]1CC[C@H]2[C@@H]3CC=C4C[C@@H](OC(=O)N(CCCCNC(C)CCN)C(C)CCN)CC[C@]4(C)[C@H]3CC[C@]12C (stereo partly drawn) [SA74, (3S,8S,9S,10R,13R,14S,17R)-10,13-dimethyl-17-((R)-6-methylheptan-2-yl)-2,3,4,7,8,9,10,11,12,13,14,15,16,17-tetradecahydro-1H-cyclopenta[a]phenanthren-3-yl (4-aminobutan-2-yl)(4-((4-aminobutan-2-yl)amino)butyl)carbamate trihydrochloride] | – | – | – | 75 nm | 0.19 | – | 99.1% | 23899.2 ± 6943.7 Relative Light Units |
| CC[C@H](CC[C@@H](C)[C@H]1CC[C@H]2[C@@H]3CC=C4C[C@@H](OC(=O)N(CCCCNC(C)CCN)C(C)CCN)CC[C@]4(C)[C@H]3CC[C@]12C)C(C)C (stereo partly drawn) [SA113, (3S,8S,9S,10R,13R,14S,17R)-17-((2R,5R)-5-ethyl-6-methylheptan-2-yl)-10,13-dimethyl-2,3,4,7,8,9,10,11,12,13,14,15,16,17-tetradecahydro-1H-cyclopenta[a]phenanthren-3-yl (4-aminobutan-2-yl)(4-((4-aminobutan-2-yl)amino)butyl)carbamate trihydrochloride] | – | – | – | 77 nm | 0.23 | – | 99.7% | 20665.4 ± 7510.5 Relative Light Units |
| CC[C@H](CC[C@@H](C)[C@H]1CC[C@H]2[C@@H]3CC=C4C[C@@H](OC(=O)N(CCCCNCC(F)(F)CN)CC(F)(F)CN)CC[C@]4(C)[C@H]3CC[C@]12C)C(C)C [SA116, (3S,8S,9S,10R,13R,14S,17R)-17-((2R,5R)-5-ethyl-6-methylheptan-2-yl)-10,13-dimethyl-2,3,4,7,8,9,10,11,12,13,14,15,16,17-tetradecahydro-1H-cyclopenta[a]phenanthren-3-yl (3-amino-2,2-difluoropropyl)(4-((3-amino-2,2-difluoropropyl)amino)butyl)carbamate trihydrochloride] | – | – | – | 73 nm | 0.20 | – | 97.6% | 110.9 ± 26.9 Relative Light Units |
| CC(C)CCC[C@@H](C)[C@H]1CC[C@H]2[C@@H]3CC=C4C[C@@H](OC(=O)CN(CCCCCCCCN)C(=O)[C@@H](N)CCCCN)CC[C@]4(C)[C@H]3CC[C@]12C.Cl.Cl.Cl [SA130, (3S,8S,9S,10R,13R,14S,17R)-10,13-dimethyl-17-((R)-6-methylheptan-2-yl)-2,3,4,7,8,9,10,11,12,13,14,15,16,17-tetradecahydro-1H-cyclopenta[a]phenanthren-3-yl N-(L-lysyl)-N-(8-aminooctyl)glycinate trihydrochloride] | 1.0 ± 0 fold-change | 85.7 nm | 0.18 | – | – | 95.7% | – | – |
| CC[C@H](CC[C@@H](C)[C@H]1CC[C@H]2[C@@H]3CC=C4C[C@@H](OC(=O)N(CCCCNC)CCCNC)CC[C@]4(C)[C@H]3CC[C@]12C)C(C)C [SA180, (3S,8S,9S,10R,13R,14S,17R)-17-((2R,5R)-5-ethyl-6-methylheptan-2-yl)-10,13-dimethyl-2,3,4,7,8,9,10,11,12,13,14,15,16,17-tetradecahydro-1H-cyclopenta[a]phenanthren-3-yl (4-(methylamino)butyl)(3-(methylamino)propyl)carbamate dihydrochloride] | – | – | – | 76 nm | 0.17 | – | 98.7% | 35476 ± 6770.8 Relative Light Units |
